According to US10028992B2, “Methods of treating muscular dystrophy” (BOARD OF REGENTS OF THE NEVADA SYSTEM OF HIGHER EDUCATION …, priority 2012, dated 2018):

Tested on: α7 integrin promoter
Test: muscle cell-based assay: α7βgal+/− myoblasts/myotubes, LacZ reporter, β-galactosidase cleavage of FDG
Set-up: species or system mouse; Results in α7+/− β-galactosidase assay: scale not given here
Settings: for AC50 / Emax / EC50: Mus musculus; for AC50: log of AC50, given with negative sign, unit of AC50 not given, read-out: Fit Log AC50 (converted); for Fit Curve Class: key not given; for Emax: read-out: Max Response [%]; for EC50: given as log AC50 (negative values), read-out: Fit LogAC50 (converted); for Results in α7+/− β-galactosidase assay: Myoblasts; for Results in a α7+/− β-galactosidase assay, Myotubes, 0.5 uM: compound at 0.5 uM; for Results in a α7+/− β-galactosidase assay, Myotubes, 1 uM: compound at 1 uM; for Results in a α7+/− β-galactosidase assay, Myotubes, 5 uM: compound at 5 uM; for Results in a α7+/− β-galactosidase assay, Myotubes, 10 uM: compound at 10 uM; for Results in a α7+/− β-galactosidase assay, Myotubes, 20 uM: compound at 20 uM; for Results in a α7+/− β-galactosidase assay, Myotubes, 40 uM: compound at 40 uM
Outline: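 Primary α7βgal+/− mouse myoblasts (LacZ knocked into α7 integrin exon 1, promoter retained), differentiated; promoter activity read as β-galactosidase conversion of non-fluorescent FDG to fluorescein. Hits followed by dose-response, western analysis and myostatin counterscreen.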

[1] = Table 12, fitted activity at zero concentration
[2] = Table 12 Compound data, concentration-response curve fit
[3] = curve fit, activity at zero concentration

COc1ccc(C(=O)N/C(=C/c2cccnc2)C(=O)N2CCN(C)CC2)cc1OC [Compound 92]
AC50 (Table 12): 4.47 µM
Fit HillSlope (Table 12, curve fit): 1.6259
Fit Zero Activity [%] [1]: 1.7602%
Fit Curve Class (Table 12): 2.2
Score [2]: 43

O=Cc1ccc(C(=O)OCC(=O)N2CCCC2)cc1 [Compound 35]
Activity at 0.307 μM [%] ** (0.307 μM): 0%
AC50 (Table 12): 2.51 µM
Emax: 71.8%
Fit HillSlope (Table 12, curve fit): 3.132
Fit Zero Activity [%] [1]: −0.1751%
Fit Curve Class (Table 12): 1.2
Score [2]: 64

CCS(=O)(=O)N1CCN(c2ccc([N+](=O)[O-])c(NCC3CCCO3)c2)CC1 (stereo not shown) [Compound 204]
EC50: 10 µM
Score (Table 12 compound data): 42
Fit Curve Class (curve class number): 2.2
Fit HillSlope (curve fit): 3.5722
Fit Zero Activity [%] [3]: 0.4864%

Cc1ccc2c(c1)/C(=C/c1ccccc1)C(=O)N2 [drawing 665]
Results in α7+/− β-galactosidase assay (0.5 uM): 0.07717
Results in α7+/− β-galactosidase assay (1 uM): 0.02304
Results in α7+/− β-galactosidase assay (5 uM): 0.03576
Results in α7+/− β-galactosidase assay (10 uM): 0.07323
Results in α7+/− β-galactosidase assay (20 uM): −0.484
Results in α7+/− β-galactosidase assay (40 uM): −0.5725

CCOC(=O)c1cc(C(=O)OCC)c(SCc2ccccc2)nc1O [drawing 624]
Results in α7+/− β-galactosidase assay (0.5 uM): −0.1519
Results in α7+/− β-galactosidase assay (1 uM): −0.22
Results in α7+/− β-galactosidase assay (5 uM): 0.001928
Results in α7+/− β-galactosidase assay (10 uM): −0.1374
Results in α7+/− β-galactosidase assay (20 uM): −0.174
Results in α7+/− β-galactosidase assay (40 uM): −0.1694

O=C(CCc1ccccc1)c1nnc(-c2ccccc2)o1 [Compound 183]
EC50: 10 µM
Score (Table 12 compound data): 42
Fit Curve Class (curve class number): 2.1
Fit HillSlope (curve fit): 4.4495
Fit Zero Activity [%] [3]: 1.0471%

CCOc1cc(C)c(S(=O)(=O)N2CCCCC2)cc1C [drawing 679]
Results in α7+/− β-galactosidase assay (0.5 uM): 0.1137
Results in α7+/− β-galactosidase assay (1 uM): 0.2418
Results in α7+/− β-galactosidase assay (5 uM): 0.02032
Results in α7+/− β-galactosidase assay (10 uM): −0.02723
Results in α7+/− β-galactosidase assay (20 uM): 0.1874
Results in α7+/− β-galactosidase assay (40 uM): 0.2404

Cc1ccc2c(c1)/C(=C/c1ccc(F)cc1)C(=O)N2 [drawing 317]
Results in a α7+/− β-galactosidase assay, Myotubes, 0.5 uM: 0.09119
Results in a α7+/− β-galactosidase assay, Myotubes, 1 uM: 0.07633
Results in a α7+/− β-galactosidase assay, Myotubes, 5 uM: 0.0903
Results in a α7+/− β-galactosidase assay, Myotubes, 10 uM: −0.07782
Results in a α7+/− β-galactosidase assay, Myotubes, 20 uM: −0.4653
Results in a α7+/− β-galactosidase assay, Myotubes, 40 uM: −0.4823

CC(=O)Oc1c(Cl)cc(/C=C2\C(=O)Nc3ccccc32)cc1Cl [drawing 506]
Results in a α7+/− β-galactosidase assay, Myotubes, 0.5 uM: −0.05659
Results in a α7+/− β-galactosidase assay, Myotubes, 1 uM: −0.06941
Results in a α7+/− β-galactosidase assay, Myotubes, 5 uM: −0.2138
Results in a α7+/− β-galactosidase assay, Myotubes, 10 uM: −0.4615
Results in a α7+/− β-galactosidase assay, Myotubes, 20 uM: −0.2526
Results in a α7+/− β-galactosidase assay, Myotubes, 40 uM: −0.403

CCC(CC)C(=O)Nc1c(C(=O)N2CCN(c3ccccc3)CC2)oc2ccccc12 [Compound 73]
AC50 (Table 12): 12.6 µM
Fit HillSlope (Table 12, curve fit): 4.095
Fit Zero Activity [%] [1]: 16.3113%
Fit Curve Class (Table 12): 2.1
Score [2]: 44

Cc1ccc2c(c1)/C(=C/c1ccccc1C)C(=O)N2 [drawing 350]
Results in a α7+/− β-galactosidase assay, Myotubes, 0.5 uM: −0.01581
Results in a α7+/− β-galactosidase assay, Myotubes, 1 uM: −0.0839
Results in a α7+/− β-galactosidase assay, Myotubes, 5 uM: −0.04071
Results in a α7+/− β-galactosidase assay, Myotubes, 10 uM: 0.0246
Results in a α7+/− β-galactosidase assay, Myotubes, 20 uM: −0.4093
Results in a α7+/− β-galactosidase assay, Myotubes, 40 uM: −0.6283

O=C(COC(=O)Cn1cnc2ccccc21)Nc1cccc([N+](=O)[O-])c1 [Compound 119]
AC50 (Table 12): 11.2 µM
Fit HillSlope (Table 12, curve fit): 4.9549
Fit Zero Activity [%] [1]: −16.0213%
Fit Curve Class (Table 12): 2.1
Score [2]: 43

CCNC(=O)CSc1nc(-c2ccc(F)cc2)cs1 [Compound 61]
AC50 (Table 12): 5.01 µM
Fit HillSlope (Table 12, curve fit): 1.1705
Fit Zero Activity [%] [1]: −3.94%
Fit Curve Class (Table 12): 2.1
Score [2]: 45

Cc1ccccc1C(=O)Nc1scc(-c2ccc(Br)cc2)c1C(=O)O [Compound 4]
AC50 (Table 12): 2.82 µM
Emax: 137%
Fit HillSlope (Table 12, curve fit): 1.8617
Fit Zero Activity [%] [1]: 7.6069%
Fit Curve Class (Table 12): 1.1
Score [2]: 87

COc1c(Cl)cc(/C=C2\C(=O)Nc3ccccc32)cc1Cl [drawing 504]
Results in a α7+/− β-galactosidase assay, Myotubes, 0.5 uM: −0.04389
Results in a α7+/− β-galactosidase assay, Myotubes, 1 uM: −0.02066
Results in a α7+/− β-galactosidase assay, Myotubes, 5 uM: −0.212
Results in a α7+/− β-galactosidase assay, Myotubes, 10 uM: −0.2296
Results in a α7+/− β-galactosidase assay, Myotubes, 20 uM: −0.06953
Results in a α7+/− β-galactosidase assay, Myotubes, 40 uM: −0.1103

O=C(NCc1ccccc1)c1csc(-c2cccnc2)n1 [drawing 660]
Results in α7+/− β-galactosidase assay (0.5 uM): −0.1908
Results in α7+/− β-galactosidase assay (1 uM): −0.04939
Results in α7+/− β-galactosidase assay (5 uM): 0.2247
Results in α7+/− β-galactosidase assay (10 uM): 0.1255
Results in α7+/− β-galactosidase assay (20 uM): 0.2423
Results in α7+/− β-galactosidase assay (40 uM): 0.1166
